Tests used:
bedstraw = experiment: Test B pre/postemergence bedstraw; type: in vivo, Galium aparine; conditions: Postemergence
How it was run: (§1)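 Test chemicals in a non-phytotoxic solvent mixture with surfactant were sprayed preemergence onto planted seeds and postemergence onto plants 2 to 18 cm tall (1- to 4-leaf stage). After twelve to sixteen days in a greenhouse, injury was visually rated against untreated controls from 0 (no effect) to 10 (complete control).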

blackgrass = experiment: Test B pre/postemergence blackgrass; type: in vivo, Alopecurus myosuroides
How it was run: as §1

surinam grass = experiment: Test B pre/postemergence surinam grass; type: in vivo, Brachiaria decumbens
How it was run: as §1

corn = experiment: Test B pre/postemergence corn; type: in vivo, Zea mays
How it was run: as §1

crabgrass = experiment: Test B pre/postemergence crabgrass; type: in vivo, Digitaria sanguinalis
How it was run: as §1

pigweed = experiment: Test B pre/postemergence pigweed; type: in vivo, Amaranthus retroflexus
How it was run: as §1

rape = experiment: Test B pre/postemergence rape; type: in vivo, Brassica napus
How it was run: as §1

soybean = experiment: Test B pre/postemergence soybean; type: in vivo, Glycine max
How it was run: as §1

sugar beet = experiment: Test B pre/postemergence sugar beet; type: in vivo, Beta vulgaris
How it was run: as §1

velvetleaf = experiment: Test B pre/postemergence velvetleaf; type: in vivo, Abutilon theophrasti
How it was run: as §1

wheat = experiment: Test B pre/postemergence wheat; type: in vivo, Triticum aestivum
How it was run: as §1

wild oat = experiment: Test B pre/postemergence wild oat; type: in vivo, Avena fatua
How it was run: as §1

purple nutsedge = experiment: Test B pre/postemergence purple nutsedge; type: in vivo, Cyperus rotundus
How it was run: as §1

rice = experiment: Test B flood test rice; type: in vivo, Oryza sativa
How it was run: (§2)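 Flood test on plants grown to the 2-leaf stage; treated plants kept in greenhouse twelve to sixteen days, then visually rated against controls on a 0 (no effect) to 10 (complete control) scale.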

smallflower flatsedge = experiment: Test B flood test smallflower flatsedge; type: in vivo, Cyperus difformis
How it was run: as §2

duck salad = experiment: Test B flood test duck salad; type: in vivo, Heteranthera limosa
How it was run: as §2

[1] = Postemergence, Rate 62 g/ha, scale 0 to 10, 0 is no effect, 10 is complete control
[2] = Postemergence, Rate 125 g/ha, scale of 0 to 10 where 0 is no effect and 10 is complete control
[3] = Postemergence, Rate 250 g/ha, scale of 0 to 10, 0 is no effect, 10 is complete control
[4] = Preemergence, Rate 62 g/ha, scale of 0 to 10 where 0 is no effect and 10 is complete control
[5] = Preemergence, Rate 125 g/ha, scale of 0 to 10 where 0 is no effect and 10 is complete control
[6] = Preemergence, Rate 250 g/ha, scale 0 to 10 (0 no effect, 10 complete control)
[7] = Preemergence, Rate 500 g/ha, scale of 0 to 10 where 0 is no effect and 10 is complete control
[8] = Rate 500 g/ha, Postemergence, scale 0 to 10, 0 is no effect, 10 is complete control
[9] = Rate 62 g/ha, flood test species, Pre-emergence, visual evaluation after twelve to sixteen days
[10] = Rate 125 g/ha, under heading Pre-emergence, flood test species, visual evaluation after twelve to sixteen days
[11] = Rate 250 g/ha, Pre-emergence (flood test species), scale 0 to 10, 0 is no effect, 10 is complete control
[12] = Rate 500 g/ha, Pre-emergence section of Table B, 0 to 10 scale (0 no effect, 10 complete control)

Question: How did the “Bedstraw plant response rating” value (bedstraw; Rate 125 g/ha, scale of 0 to 10 where 0 is no effect and 10 is complete control) turn out when `CC(C)N(C(=O)n1oc(=O)n(CCC(=O)N(C)C)c1=O)c1ccccc1` [Compound 671] was run?
Answer: 0

Question: And the “Bedstraw plant response rating” value (bedstraw; Rate 250 g/ha, scale of 0 to 10, 0 is no effect, 10 is complete control)?
Answer: 0

Question: And the “Bedstraw plant response rating” value (bedstraw; Rate 500 g/ha, scale 0 to 10, 0 is no effect, 10 is complete control)?
Answer: 0

Question: And the “Plant response rating, Blackgrass” value (blackgrass; [1])?
Answer: 0

Question: And the “Blackgrass plant response rating” value (blackgrass; [2])?
Answer: 6

Question: What about the “Blackgrass plant response rating” value (blackgrass; [3]) of the same compound?
Answer: 8

Question: What about the “Blackgrass plant response rating” value (blackgrass; [4]) of the same compound?
Answer: 5

Question: What about the “Plant response rating, Blackgrass” value (blackgrass; [5]) of the same compound?
Answer: 7

Question: What about the “Plant response rating, Blackgrass” value (blackgrass; [6]) of the same compound?
Answer: 8

Question: What about the “Plant response rating, Blackgrass” value (blackgrass; [7]) of the same compound?
Answer: 10

Question: What about the “Blackgrass plant response rating” value (blackgrass; [8]) of the same compound?
Answer: 8

Question: What about the “Plant response rating, B. signalgrass” value (surinam grass; [1]) of the same compound?
Answer: 0

Question: And the “Plant response rating, B. signalgrass” value (surinam grass; [2])?
Answer: 1

Question: What about the “B. signalgrass plant response rating” value (surinam grass; [3]) of the same compound?
Answer: 6

Question: And the “B. signalgrass plant response rating” value (surinam grass; [4])?
Answer: 4

Question: What about the “Plant response rating, B. signalgrass” value (surinam grass; [5]) of the same compound?
Answer: 6

Question: What about the “Plant response rating, B. signalgrass” value (surinam grass; [6]) of the same compound?
Answer: 7

Question: And the “Plant response rating, B. signalgrass” value (surinam grass; [7])?
Answer: 9

Question: And the “B. signalgrass plant response rating” value (surinam grass; [8])?
Answer: 8

Question: What about the “Plant response rating, Corn” value (corn; [1]) of the same compound?
Answer: 0

Question: What about the “Corn plant response rating” value (corn; [2]) of the same compound?
Answer: 0

Question: What about the “Corn plant response rating” value (corn; [3]) of the same compound?
Answer: 0

Question: And the “Corn plant response rating” value (corn; [4])?
Answer: 0

Question: And the “Plant response rating, Corn” value (corn; [5])?
Answer: 0

Question: And the “Plant response rating, Corn” value (corn; [6])?
Answer: 3

Question: And the “Plant response rating, Corn” value (corn; [7])?
Answer: 9

Question: What about the “Corn plant response rating” value (corn; [8]) of the same compound?
Answer: 5

Question: What about the “Plant response rating, Crabgrass” value (crabgrass; [1]) of the same compound?
Answer: 1

Question: And the “Crabgrass plant response rating” value (crabgrass; [2])?
Answer: 1

Question: What about the “Crabgrass plant response rating” value (crabgrass; [3]) of the same compound?
Answer: 8

Question: And the “Crabgrass plant response rating” value (crabgrass; [4])?
Answer: 4

Question: What about the “Plant response rating, Crabgrass” value (crabgrass; [5]) of the same compound?
Answer: 8

Question: What about the “Plant response rating, Crabgrass” value (crabgrass; [6]) of the same compound?
Answer: 8

Question: What about the “Plant response rating, Crabgrass” value (crabgrass; [7]) of the same compound?
Answer: 9

Question: And the “Crabgrass plant response rating” value (crabgrass; [8])?
Answer: 9

Question: What about the “Plant response rating, Redroot pigweed” value (pigweed; [1]) of the same compound?
Answer: 0

Question: What about the “Redroot pigweed plant response rating” value (pigweed; [2]) of the same compound?
Answer: 1

Question: And the “Redroot pigweed plant response rating” value (pigweed; [4])?
Answer: 0

Question: And the “Plant response rating, Redroot pigweed” value (pigweed; [5])?
Answer: 2

Question: And the “Plant response rating, Redroot pigweed” value (pigweed; [6])?
Answer: 10

Question: And the “Plant response rating, Redroot pigweed” value (pigweed; [7])?
Answer: 10

Question: And the “Redroot pigweed plant response rating” value (pigweed; [8])?
Answer: 5

Question: What about the “Plant response rating, Rape” value (rape; [1]) of the same compound?
Answer: 0

Question: And the “Rape plant response rating” value (rape; [2])?
Answer: 0

Question: What about the “Rape plant response rating” value (rape; [4]) of the same compound?
Answer: 0

Question: And the “Plant response rating, Rape” value (rape; [5])?
Answer: 0

Question: And the “Plant response rating, Rape” value (rape; [6])?
Answer: 0

Question: And the “Plant response rating, Rape” value (rape; [7])?
Answer: 8

Question: What about the “Rape plant response rating” value (rape; [8]) of the same compound?
Answer: 2

Question: And the “Plant response rating, Soybean” value (soybean; [1])?
Answer: 2

Question: And the “Soybean plant response rating” value (soybean; [2])?
Answer: 2

Question: And the “Soybean plant response rating” value (soybean; [4])?
Answer: 0

Question: And the “Plant response rating, Soybean” value (soybean; [5])?
Answer: 0

Question: What about the “Plant response rating, Soybean” value (soybean; [6]) of the same compound?
Answer: 0

Question: And the “Plant response rating, Soybean” value (soybean; [7])?
Answer: 3

Question: What about the “Soybean plant response rating” value (soybean; [8]) of the same compound?
Answer: 4

Question: And the “Plant response rating, Sugarbeets” value (sugar beet; [1])?
Answer: 0

Question: And the “Sugarbeets plant response rating” value (sugar beet; [2])?
Answer: 0

Question: And the “Sugarbeets plant response rating” value (sugar beet; [4])?
Answer: 1

Question: What about the “Plant response rating, Sugarbeets” value (sugar beet; [5]) of the same compound?
Answer: 9

Question: And the “Plant response rating, Sugarbeets” value (sugar beet; [6])?
Answer: 9

Question: And the “Plant response rating, Sugarbeets” value (sugar beet; [7])?
Answer: 9

Question: And the “Sugarbeets plant response rating” value (sugar beet; [8])?
Answer: 3

Question: And the “Plant response rating, Velvetleaf” value (velvetleaf; [1])?
Answer: 0

Question: And the “Velvetleaf plant response rating” value (velvetleaf; [2])?
Answer: 0

Question: And the “Velvetleaf plant response rating” value (velvetleaf; [4])?
Answer: 2

Question: And the “Plant response rating, Velvetleaf” value (velvetleaf; [5])?
Answer: 7

Question: And the “Plant response rating, Velvetleaf” value (velvetleaf; [6])?
Answer: 7

Question: What about the “Plant response rating, Velvetleaf” value (velvetleaf; [7]) of the same compound?
Answer: 9

Question: And the “Velvetleaf plant response rating” value (velvetleaf; [8])?
Answer: 3

Question: And the “Plant response rating, Wheat” value (wheat; [1])?
Answer: 0

Question: What about the “Wheat plant response rating” value (wheat; [2]) of the same compound?
Answer: 0

Question: What about the “Wheat plant response rating” value (wheat; [4]) of the same compound?
Answer: 0

Question: What about the “Plant response rating, Wheat” value (wheat; [5]) of the same compound?
Answer: 0

Question: What about the “Plant response rating, Wheat” value (wheat; [6]) of the same compound?
Answer: 3

Question: What about the “Plant response rating, Wheat” value (wheat; [7]) of the same compound?
Answer: 8

Question: And the “Wheat plant response rating” value (wheat; [8])?
Answer: 6

Question: And the “Plant response rating, Wild oats” value (wild oat; [1])?
Answer: 0

Question: And the “Wild oats plant response rating” value (wild oat; [2])?
Answer: 0

Question: And the “Wild oats plant response rating” value (wild oat; [4])?
Answer: 0

Question: And the “Plant response rating, Wild oats” value (wild oat; [5])?
Answer: 0

Question: And the “Plant response rating, Wild oats” value (wild oat; [6])?
Answer: 7

Question: And the “Plant response rating, Wild oats” value (wild oat; [7])?
Answer: 5

Question: What about the “Wild oats plant response rating” value (wild oat; [8]) of the same compound?
Answer: 0

Question: And the “Plant response rating, Nutsedge” value (purple nutsedge; [1])?
Answer: 0

Question: What about the “Nutsedge plant response rating” value (purple nutsedge; [2]) of the same compound?
Answer: 0

Question: What about the “Nutsedge plant response rating” value (purple nutsedge; [4]) of the same compound?
Answer: 0

Question: What about the “Plant response rating, Nutsedge” value (purple nutsedge; [5]) of the same compound?
Answer: 2

Question: And the “Plant response rating, Nutsedge” value (purple nutsedge; [6])?
Answer: 6

Question: What about the “Plant response rating, Nutsedge” value (purple nutsedge; [7]) of the same compound?
Answer: 6

Question: What about the “Nutsedge plant response rating” value (purple nutsedge; [8]) of the same compound?
Answer: 0

Question: What about the “Plant response rating, Rice (0 to 10 scale, 0 is no effect, 10 is complete control)” value (rice; [9]) of the same compound?
Answer: 0

Question: And the “Rice plant response rating (0 to 10 scale, 0 is no effect, 10 is complete control)” value (rice; [10])?
Answer: 0

Question: What about the “Rice plant response rating” value (rice; [11]) of the same compound?
Answer: 0

Question: And the “Rice plant response rating” value (rice; [12])?
Answer: 0

Question: What about the “Plant response rating, S. Flatsedge (0 to 10 scale, 0 is no effect, 10 is complete control)” value (smallflower flatsedge; [9]) of the same compound?
Answer: 0

Question: What about the “S. Flatsedge plant response rating (0 to 10 scale, 0 is no effect, 10 is complete control)” value (smallflower flatsedge; [10]) of the same compound?
Answer: 0

Question: What about the “S. Flatsedge plant response rating” value (smallflower flatsedge; [11]) of the same compound?
Answer: 0

Question: What about the “S. Flatsedge plant response rating” value (smallflower flatsedge; [12]) of the same compound?
Answer: 0

Question: What about the “Plant response rating, Ducksalad (0 to 10 scale, 0 is no effect, 10 is complete control)” value (duck salad; [9]) of the same compound?
Answer: 0

Question: What about the “Ducksalad plant response rating (0 to 10 scale, 0 is no effect, 10 is complete control)” value (duck salad; [10]) of the same compound?
Answer: 0

Question: What about the “Ducksalad plant response rating” value (duck salad; [11]) of the same compound?
Answer: 0

Question: And the “Ducksalad plant response rating” value (duck salad; [12])?
Answer: 0
